The target of assay [1] is T1, purified human topoisomerase I (Homo sapiens, UniProt P11387).
T1 construct: purchased Topogen
T1 sequence (P11387 1-765): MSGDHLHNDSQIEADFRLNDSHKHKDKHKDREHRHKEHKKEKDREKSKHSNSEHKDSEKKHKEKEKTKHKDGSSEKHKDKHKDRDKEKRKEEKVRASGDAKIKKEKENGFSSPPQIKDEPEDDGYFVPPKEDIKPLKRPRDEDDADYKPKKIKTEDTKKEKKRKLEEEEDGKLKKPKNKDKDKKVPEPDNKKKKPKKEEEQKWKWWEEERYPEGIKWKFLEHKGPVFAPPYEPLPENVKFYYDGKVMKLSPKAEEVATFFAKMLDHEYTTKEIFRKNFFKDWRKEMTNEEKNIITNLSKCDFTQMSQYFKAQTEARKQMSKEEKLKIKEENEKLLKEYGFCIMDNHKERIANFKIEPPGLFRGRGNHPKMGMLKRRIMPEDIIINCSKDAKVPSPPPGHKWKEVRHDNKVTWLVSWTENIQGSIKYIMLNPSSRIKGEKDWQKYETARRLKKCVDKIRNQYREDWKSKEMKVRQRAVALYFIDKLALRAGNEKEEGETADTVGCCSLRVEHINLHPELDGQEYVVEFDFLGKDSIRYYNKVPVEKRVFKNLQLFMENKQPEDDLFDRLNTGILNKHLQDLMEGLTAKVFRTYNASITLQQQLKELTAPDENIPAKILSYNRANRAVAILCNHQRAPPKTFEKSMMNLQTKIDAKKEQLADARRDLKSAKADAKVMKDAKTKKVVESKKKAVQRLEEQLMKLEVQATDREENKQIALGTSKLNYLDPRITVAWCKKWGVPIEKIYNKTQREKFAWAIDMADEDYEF
The assay is described as follows: Topoisomerase I-mediated single strand DNA break induction (in vitro). The format is biochemical. As to conditions: median effect concentration for inducing single-strand breaks in the DNA substrate; read-out: Topo I EC50. How it is done: Topoisomerase I activity was measured as described below. The procedure for assaying compound-induced, topoisomerase I-mediated single strand breaks in DNA was essentially that described by Hsiang, et al., (J. Biol. Chem. 1985, 260, 14873-14878). Samples dissolved in 100% DMSO as either […] or 10 mg/ml solutions, unless otherwise stated, were diluted in Tris-EDTA buffer. Marine bacteriophage PM2 DNA (Boehringer Mannheim) was also diluted in Tris-EDTA buffer to a concentration of 0.02 μg/μl. Different dilutions of the compound being evaluated were mixed with diluted DNA and this mixture was added to […] (one unit of enzyme activity is defined as the amount capable of relaxing 100 ng of supercoiled DNA in approximately 30 minutes at 37° C.) aliquots of purified human topoisomerase I (Topogen) in 2X reaction buffer to start the reaction. The compound-DNA-enzyme mixture was incubated for 30 minutes at 37° C. before stopping the reaction with warm stop buffer containing sodium dodecyl sulfate and proteinase K (Sigma). These mixtures were allowed to incubate at 37° C. for another 10 minutes, at which time the mixtures were removed from the waterbath and extracted with a 24:1 mixture of chloroform/isoamyl alcohol. Following centrifugation, aliquots of the aqueous phases were placed in wells of a 0.9% agarose (SeaKem) gel in Tris-borate buffer containing 0.5 μg/ml of ethidium bromide and subjected to electrophoresis for 15 hours to separate the different topological isomers and nicked and broken DNAs. After destaining the gel in water, the ethidium bromide stained DNA reaction products were visualized by exposing the gel to UV irradiation. Negatives of the photographs of the irradiated gels were scanned with a densitometer and areas under the peaks were calculated in order to obtain percent single strand DNA break formation for each sample. A median effective concentration (EC50) was obtained for each compound by interpolation between points of the resulting dose-effect curve which defines the potency of the compound for its effect in inducing topoisomerase I-mediated single strand breaks in DNA. The topoisomerase I activities for certain compounds of the present invention are shown below in Table I.

For assay [2], the system named is P388 murine leukemia cells. Description: In vitro cell-based cytotoxicity, parental P388 cells. As to conditions: Mus musculus, 72 h, median cytotoxic concentration, 3 days continuous exposure. How it is done:
The proliferation inhibition activity against the murine P388 cell line was measured as follows. Evaluation of a soluble tetrazolium/formazan assay for cell growth and drug sensitivity in culture, using human and other tumor cell lines, was done according to the procedure described in Cancer Res. 1988, 48, 4827-4833. Cells were plated at 4000 cells/well in 96 well microtiter plates and 24 h later drugs were added and serially diluted. The cells were incubated at 37° C. for 72 h, at which time a tetrazolium dye, XTT, containing phenazine methosulfate was added. A dehydrogenase enzyme in live cells reduced the XTT to a form that absorbs light at 450 nm, which could be quantitated spectrophotometrically. The greater the absorbance the greater the number of live cells. The results are expressed as an IC50, which is the drug concentration required to inhibit cell proliferation (i.e., absorbance at 450 nm) to 50% of that of untreated control cells.
(§1) Similarly, P338 murine leukemia cells were maintained in RPMI 1640 supplemented with 20% fetal bovine serum and 10 μM 2-mercaptoethanol. A camptothecin resistant subline, P388/CPT45, was selected for resistance to camptothecin and is over 1000-fold resistant to this compound (Woessner, et al. Oncol. Res. 1992, 4, 481-488).
(§2) In vitro cytotoxicity was assessed in tissue culture cells by MTS (3-(4,5-dimethylthiazol-2-yl)-5-(3-carboxymethoxyphenyl)-2-(4-sulphenyl)-2H-tetrazolium, inner salt) assay (Riss and Moravec, Mol. Biol. Cell 1992, 3 (Suppl.), 184a). Cells were plated at 8,000 cell/well in 96 well microtiter plates and 24 hours later serial dilutions of the test compounds were made and added to the cells. The cells were incubated at 37° C. for 72 hours, at which time the tetrazolium dye, MTS at 333 μg/ml (final concentration), in combination with the electron coupling agent phenazine methosulfate at 25 μM (final concentration) was added. A dehydrogenase enzyme in live cells reduces the MTS to a form that absorbs light at 492 nm which can be quantitated spectrophotometrically. The greater the absorbance the greater the number of live cells. The results are expressed as an IC50, which is the drug concentration required to inhibit cell proliferation (i.e., absorbance at 492 nm) to 50% of that of untreated control cells.
The cytotoxic activity for certain compounds of the present invention, in both parental P388 and the camptothecin-resistant P388/CPT45 cell lines are shown below in Table I.

For assay [3], the system named is P388/CPT45 cells. Description: Cytotoxicity in camptothecin-resistant P388/CPT45 cells relative to parental P388 (selectivity index R/S). The format is cell-based, murine. To be noted: IC50 P388/CPT45 cells divided by IC50 parental P388 cells.
Source text: The present invention includes fluoro sugar and other sugar derivatives of indolopyrrolocarbazoles of formula (I), as defined above. […] Most importantly, the instant invention describes topo I active compounds, related to compounds disclosed in WO 98/07433 and co-pending U.S. application, Ser. No. 08/914566 (both herein incorporated by reference), which display a surprising and unexpected selectivity index when evaluated for cytotoxicity in certain cell lines which express normal levels of topo I required for cell proliferation, compared with cell lines that are deficient in or underexpress topo I. Said “selectivity index” (R/S) was generated by dividing the cytotoxic IC50 of a particular compound against a camptothecin-resistant murine leukemia cell line, P388/CPT45, by the IC50 generated when using the parent P388 cell line. […] A level of selectivity was judged to be advantageous and beneficial in, for example, modulating potential undesirable side effects and/or toxicity. The compounds of the present invention were selected from compounds generically disclosed in WO 98/07433 and co-pending U.S. patent application, Ser. No. 08/914566, on the basis of an unexpected and unpredictable selectivity index (see Table I and II). […] Simple changes in the substitution of the sugar portion or the indolopyrrolocarbazole portion of the present invention will change the selectivity. This change in selectivity is not predictable by one skilled in the art.
as §1, §2
The selectivity index (R/S) is defined as the ratio obtained by dividing the IC50 value obtained using P388/CPT45 cells by that obtained using parental P388 cells. The R/S ratios used to determine the relative topo I selectivity of selected compounds of this invention are shown below in Table I.

We go through 13 compounds from US20030083271A1, “Topoisomerase I selective cytotoxic sugar derivatives of indolopyrrolocarbazoles” (priority 2001, published 2003).

Bounds are passed on as bounds.

For orientation: EC50 means the concentration needed to bring the measured effect to its halfway point. In general, IC50 refers to the point on the concentration scale where inhibition reaches its midpoint. Take `O=C1NC(=O)c2c1c1c3cc(F)ccc3sc1c1c2c2cc(F)ccc2n1[C@@H]1O[C@H](CF)[C@@H](O)[C@H](O)[C@H]1O` [Example 3]: in assay [1], the EC50 stood at 60 nM. Further, in assay [2], the IC50 turned out to be 16 nM. For the same compound, the “Selectivity Index R/S” value in assay [3] amounted to 110.4.
Turning to `C[C@@H]1C[C@H](O)[C@@H](O)[C@H](n2c3ccc(F)cc3c3c4c(c5c6cc(F)ccc6[nH]c5c32)C(=O)NC4=O)O1` [Example 11, 12-[4,6-Dideoxy-β-D-glucopyranosyl]-3,9-difluoro-12,13-dihydro-5H-indolo[2,3-a]pyrrolo[3,4-c]carbazole-5,7(6H)-dione], the IC50 in assay [2] amounted to 16 nM. The “Selectivity Index R/S” value in assay [3] is reported as 125.3.
Consider `NC[C@@H]1C[C@H](O)[C@@H](O)[C@H](n2c3ccc(F)cc3c3c4c(c5c6cc(F)ccc6[nH]c5c32)C(=O)NC4=O)O1` [Example 41], for which the EC50 in assay [1] turned out to be 20 nM. Also, the half-maximal inhibitory concentration (IC50) in assay [2] is 72 nM. In addition, in assay [3], the “Selectivity Index R/S” value is given as 27.3.
On the same counts, the results for `NC[C@H]1O[C@@H](n2c3ccc(F)cc3c3c4c(c5c6cc(F)ccc6sc5c32)C(=O)NC4=O)[C@H](O)[C@@H](O)[C@@H]1O` [Example 6] are 70 nM, 68 nM and over 116.3.
With `O=C1NCc2c1c1c3cc(F)ccc3[nH]c1c1c2c2cc(F)ccc2n1[C@@H]1O[C@H](CO)[C@@H](F)[C@H](O)[C@H]1O` [Example 32, 12-[4-Deoxy-4-fluoro-β-D-glucopyranosyl]-3,9-difluoro-12,13-dihydro-5H-indolo[2,3-a]pyrrolo[3,4-c]carbazole-5(6H)-one], the 50% inhibitory concentration (IC50) in assay [2] was 5 nM. Besides, the “Selectivity Index R/S” value in assay [3] is 1051.8.
Consider `[N-]=[N+]=N[C@H]1[C@H](O)[C@@H](O)[C@H](n2c3ccc(F)cc3c3c4c(c5c6cc(F)ccc6[nH]c5c32)C(=O)NC4=O)O[C@@H]1CO` [Example 10], for which, in assay [1], the 50% effective concentration (EC50) amounted to 20 nM. The IC50 in assay [2] came to 68 nM. Further, in assay [3], the “Selectivity Index R/S” value came out at 121.3.
Regarding `CNCC(=O)NC[C@H]1O[C@@H](n2c3ccc(F)cc3c3c4c(c5c6cc(F)ccc6sc5c32)C(=O)NC4=O)[C@H](O)[C@@H](O)[C@@H]1O` [Example 23, 12-[6-Deoxy-6-[(N-methylglycinyl)amino]-β-D-glucopyranosyl]-3,9-difluoro-5H, 13H-benzo[b]thienyl[2,3-a]pyrrolo[3,4-c]carbazole-5,7(6H)-dione], the half-inhibitory concentration (IC50) in assay [2] is 25 nM. Also, in assay [3], the “Selectivity Index R/S” value was 306.8.
On to `O=C1NC(=O)c2c1c1c3cc(F)c(F)cc3[nH]c1c1c2c2cc(F)c(F)cc2n1[C@@H]1O[C@H](CO)C(F)(F)[C@H](O)[C@H]1O` [Example 14], for which, in assay [1], the EC50 was determined as 30 nM. The concentration for half-maximal inhibition (IC50) in assay [2] stood at 6 nM. Further, the “Selectivity Index R/S” value in assay [3] is listed as 140.3.
In the same order, the values of `O=C(O)CSC[C@H]1O[C@@H](n2c3ccc(F)cc3c3c4c(c5c6cc(F)ccc6[nH]c5c32)C(=O)NC4=O)[C@H](O)[C@@H](O)[C@@H]1O` [Example 1] are 50 nM, 57 nM and 101.7.
As for `CC(C)CC(N)C(=O)O[C@H]1[C@H](n2c3cc(F)c(F)cc3c3c4c(c5c6cc(F)c(F)cc6[nH]c5c32)C(=O)NC4=O)O[C@H](CF)C[C@@H]1O` (stereo in doubt) [Example 5, 12-[4,6-Dideoxy-6-fluoro-2-O-leucyl-β-D-glucopyranosyl]-2,3,9,10-tetrafluoro-12,13-dihydro-5H-indolo[2,3-a]pyrrolo[3,4-c]carbazole-5,7(6H)-dione], in assay [2], the IC50 turned out to be 32 nM. The “Selectivity Index R/S” value in assay [3] is 112.5.
In the same order, the values of `C[C@]1(O)C[C@@H](CO)O[C@@H](n2c3cc(F)c(F)cc3c3c4c(c5c6cc(F)c(F)cc6[nH]c5c32)C(=O)NC4=O)[C@@H]1O` [Example 18, 12-[4-Deoxy-3-methyl-β-D-glucopyranosyl]-2,3,9,10-tetrafluoro-12,13-dihydro-5H-indolo[2,3-a]pyrrolo[3,4-c]carbazole-5,7(6H)-dione] are 8 nM and 184.8.
For the compound `C[C@@]1(O)C[C@@H](CO)O[C@@H](n2c3cc(F)c(F)cc3c3c4c(c5c6cc(F)c(F)cc6[nH]c5c32)C(=O)NC4=O)[C@@H]1O` [Example 29, 12-[4-Deoxy-3-methyl-β-D-allopyranosyl]-2,3,9,10-tetrafluoro-12,13-dihydro-5H-indolo[2,3-a]pyrrolo[3,4-c]carbazole-5,7(6H)-dione], the IC50 in assay [2] came out at 5 nM. In addition, the “Selectivity Index R/S” value in assay [3] worked out at 539.6.
On the same counts, the results for `O=C1NCc2c1c1c3cc(F)ccc3n([C@@H]3O[C@H](CO)[C@@H](F)[C@H](O)[C@H]3O)c1c1[nH]c3ccc(F)cc3c21` [Example 34, 12-[4-Deoxy-4-fluoro-β-D-glucopyranosyl)-3,9-difluoro-12,13-dihydro-5H-indolo[2,3-a]pyrrolo[3,4-c]carbazole-7(6H)-one] are 2 nM and 2859.5.
